Assays:
[1] = Analysis of glutaraldehyde release after heat-aging; type: physicochemical; conditions: sterile deionized water, molar equivalent of 2000 ppm glutaraldehyde; initial and heat-aged at 55° C. for 2 h or 24 h
Protocol: Samples of the IPHA-adduct are analyzed for glutaraldehyde content. Samples are prepared in sterile deionized water at the molar equivalent of 2000 ppm glutaraldehyde. A standard of 500 ppm glutaraldehyde is also prepared. An initial measurement is taken just after sample preparation. Samples are then heat-aged at 55° C. for 2 h or 24 h and analyzed again. Glutaraldehyde concentration is measured directly via GC and after pre-column derivatization by HPLC.

T. thermophilus = assay: Biocidal efficacy against thermophilic bacteria at 70° C., dilution to extinction; type: cell-based; conditions: equivalent of 100 ppm glutaraldehyde, after 5 days with re-challenging
Protocol: b. Thermophilic Bacteria. A 48-72 hour old culture of T. thermophilus is pelleted by centrifuging at 2000 g and the pellet resuspended in 10 times the culture volume of buffer (PBS or carbonate-buffered synthetic freshwater). The suspension is distributed into 10 mL aliquots in glass screw-cap tubes. Each tube is then treated with glutaraldehyde or an adduct and incubated at 70° C. At indicated timepoints, cell density in each tube is measured via dilution to extinction by serially diluting a sample and plating dilutions on solid media.

Glutaraldehyde concentration after pre-column derivatization by HPLC [1] | Glutaraldehyde concentration measured directly via GC [1] | SMILES | Control of bacterial levels after 5 days (T. thermophilus)
low levels of glutaraldehyde | No glutaraldehyde is detected | CC(C)/[N+]([O-])=C/CCC/C=[N+](\[O-])C(C)C [IPHA-adduct, N,N′-(pentane-1,5-diylidene)bis(propan-2-amineoxide)] | 
 |  | O=CCCCC=O [glutaraldehyde] | fails to control bacterial levels
